Data reported in ChEMBL document CHEMBL5579822, “Targeting cyclin-dependent kinases: From pocket specificity to drug selectivity” (Eur J Med Chem, 2024).
Each block holds one molecule with its values, some of them ahead of it.

What was measured:
CDK12/Cyclin K = CDK12/Cyclin K (Homo sapiens, UniProt Q9NYV4)
[1] = molecular target: Cyclin-dependent kinase 13 (Homo sapiens, UniProt Q14004)
[2] = molecular target: Cyclin-dependent kinase 13/Cyclin-K (Homo sapiens, UniProt Q14004)
[3] = molecular target: T1, Cyclin-dependent kinase 7 (Homo sapiens, UniProt P50613); experiment: biochemical
[4] = molecular target: T1, Cyclin-dependent kinase 7
[5] = molecular target: Cyclin-dependent kinase 1 (Homo sapiens, UniProt P06493)
[6] = molecular target: T2, Cyclin-dependent kinase 2 (Homo sapiens, UniProt P24941)
[7] = molecular target: T3, Cyclin-dependent kinase 4 (Homo sapiens, UniProt P11802)
[8] = molecular target: T4, Cyclin-dependent kinase 6 (Homo sapiens, UniProt Q00534)
[9] = molecular target: T5, Cyclin-dependent kinase 9 (Homo sapiens, UniProt P50750)
[10] = molecular target: T2, Cyclin-dependent kinase 2; experiment: Binding affinity to CDK2 (unknown origin) extracted from insect cells assessed as inhibition constant; type: cell-free, Insect cell
[11] = molecular target: T3, Cyclin-dependent kinase 4; experiment: Binding affinity to CDK4 (unknown origin) assessed as inhibition constant
[12] = molecular target: T4, Cyclin-dependent kinase 6; experiment: Binding affinity to CDK6 (unknown origin) assessed as inhibition constant
[13] = molecular target: T5, Cyclin-dependent kinase 9; experiment: Binding affinity to CDK9 (unknown origin) assessed as inhibition constant
[14] = molecular target: T5, Cyclin-dependent kinase 9; remark: listed apart in the source
[15] = molecular target: T2, Cyclin-dependent kinase 2; remark: listed apart in the source
[16] = molecular target: T3, Cyclin-dependent kinase 4; remark: listed apart in the source
[17] = molecular target: T4, Cyclin-dependent kinase 6; remark: listed apart in the source
[18] = molecular target: Cyclin-dependent kinase 5 (Homo sapiens, UniProt Q00535)
Cyclin-dependent kinase 5, sequence (Q00535 whole entry): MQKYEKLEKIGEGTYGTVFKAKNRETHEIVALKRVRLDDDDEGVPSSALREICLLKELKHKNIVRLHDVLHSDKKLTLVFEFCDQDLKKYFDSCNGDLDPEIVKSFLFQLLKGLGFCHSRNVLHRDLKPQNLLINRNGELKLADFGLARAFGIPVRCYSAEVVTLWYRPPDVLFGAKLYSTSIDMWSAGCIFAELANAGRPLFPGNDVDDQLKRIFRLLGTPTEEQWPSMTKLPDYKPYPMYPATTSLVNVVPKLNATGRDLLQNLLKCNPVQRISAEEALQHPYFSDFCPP

T5 sequence (P50750 whole entry): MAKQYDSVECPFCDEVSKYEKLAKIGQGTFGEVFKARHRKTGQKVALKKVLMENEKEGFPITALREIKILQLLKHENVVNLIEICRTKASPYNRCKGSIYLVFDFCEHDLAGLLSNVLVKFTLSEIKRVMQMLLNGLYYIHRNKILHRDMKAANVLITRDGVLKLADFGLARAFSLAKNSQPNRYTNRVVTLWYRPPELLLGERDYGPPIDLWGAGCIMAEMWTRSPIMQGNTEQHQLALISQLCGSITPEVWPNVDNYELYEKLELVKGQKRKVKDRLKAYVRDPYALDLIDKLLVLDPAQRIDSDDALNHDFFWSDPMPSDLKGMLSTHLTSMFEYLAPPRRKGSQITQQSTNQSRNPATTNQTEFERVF
T3 sequence (P11802 whole entry): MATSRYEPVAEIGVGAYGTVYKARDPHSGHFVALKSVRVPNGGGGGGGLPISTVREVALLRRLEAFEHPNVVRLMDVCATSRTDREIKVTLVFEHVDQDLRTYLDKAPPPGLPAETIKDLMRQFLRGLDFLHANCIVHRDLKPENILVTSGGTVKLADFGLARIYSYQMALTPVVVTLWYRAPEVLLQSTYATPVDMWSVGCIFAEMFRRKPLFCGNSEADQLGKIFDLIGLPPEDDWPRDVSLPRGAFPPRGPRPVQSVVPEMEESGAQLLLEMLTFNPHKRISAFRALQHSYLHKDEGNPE
T4 sequence (Q00534 whole entry): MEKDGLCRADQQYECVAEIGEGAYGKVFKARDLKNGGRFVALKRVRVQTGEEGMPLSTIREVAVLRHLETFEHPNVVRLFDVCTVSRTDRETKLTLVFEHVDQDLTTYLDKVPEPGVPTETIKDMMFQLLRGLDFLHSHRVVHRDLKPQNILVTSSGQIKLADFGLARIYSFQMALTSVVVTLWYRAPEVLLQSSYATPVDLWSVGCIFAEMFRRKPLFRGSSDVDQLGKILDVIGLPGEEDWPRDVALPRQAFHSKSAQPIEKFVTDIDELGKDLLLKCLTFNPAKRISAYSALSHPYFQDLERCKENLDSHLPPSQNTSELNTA
CDK12/Cyclin K, sequence (O75909 whole entry): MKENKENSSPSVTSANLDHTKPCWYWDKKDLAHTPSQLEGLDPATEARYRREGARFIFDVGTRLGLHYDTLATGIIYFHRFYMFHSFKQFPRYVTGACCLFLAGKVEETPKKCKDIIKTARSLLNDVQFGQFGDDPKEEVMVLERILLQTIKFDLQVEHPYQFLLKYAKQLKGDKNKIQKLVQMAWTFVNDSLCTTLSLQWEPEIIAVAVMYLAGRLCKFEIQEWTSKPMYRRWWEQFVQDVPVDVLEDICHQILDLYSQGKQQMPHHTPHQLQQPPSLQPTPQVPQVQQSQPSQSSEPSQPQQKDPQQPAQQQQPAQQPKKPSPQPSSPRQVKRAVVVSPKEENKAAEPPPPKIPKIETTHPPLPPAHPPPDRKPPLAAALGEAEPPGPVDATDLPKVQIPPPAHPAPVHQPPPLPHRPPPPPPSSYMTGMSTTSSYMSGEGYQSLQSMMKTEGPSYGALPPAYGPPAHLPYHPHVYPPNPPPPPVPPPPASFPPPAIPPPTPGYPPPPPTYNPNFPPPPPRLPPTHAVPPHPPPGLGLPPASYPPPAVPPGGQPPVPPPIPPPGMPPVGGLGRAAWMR
CDK12/Cyclin K, sequence (Q9NYV4 whole entry): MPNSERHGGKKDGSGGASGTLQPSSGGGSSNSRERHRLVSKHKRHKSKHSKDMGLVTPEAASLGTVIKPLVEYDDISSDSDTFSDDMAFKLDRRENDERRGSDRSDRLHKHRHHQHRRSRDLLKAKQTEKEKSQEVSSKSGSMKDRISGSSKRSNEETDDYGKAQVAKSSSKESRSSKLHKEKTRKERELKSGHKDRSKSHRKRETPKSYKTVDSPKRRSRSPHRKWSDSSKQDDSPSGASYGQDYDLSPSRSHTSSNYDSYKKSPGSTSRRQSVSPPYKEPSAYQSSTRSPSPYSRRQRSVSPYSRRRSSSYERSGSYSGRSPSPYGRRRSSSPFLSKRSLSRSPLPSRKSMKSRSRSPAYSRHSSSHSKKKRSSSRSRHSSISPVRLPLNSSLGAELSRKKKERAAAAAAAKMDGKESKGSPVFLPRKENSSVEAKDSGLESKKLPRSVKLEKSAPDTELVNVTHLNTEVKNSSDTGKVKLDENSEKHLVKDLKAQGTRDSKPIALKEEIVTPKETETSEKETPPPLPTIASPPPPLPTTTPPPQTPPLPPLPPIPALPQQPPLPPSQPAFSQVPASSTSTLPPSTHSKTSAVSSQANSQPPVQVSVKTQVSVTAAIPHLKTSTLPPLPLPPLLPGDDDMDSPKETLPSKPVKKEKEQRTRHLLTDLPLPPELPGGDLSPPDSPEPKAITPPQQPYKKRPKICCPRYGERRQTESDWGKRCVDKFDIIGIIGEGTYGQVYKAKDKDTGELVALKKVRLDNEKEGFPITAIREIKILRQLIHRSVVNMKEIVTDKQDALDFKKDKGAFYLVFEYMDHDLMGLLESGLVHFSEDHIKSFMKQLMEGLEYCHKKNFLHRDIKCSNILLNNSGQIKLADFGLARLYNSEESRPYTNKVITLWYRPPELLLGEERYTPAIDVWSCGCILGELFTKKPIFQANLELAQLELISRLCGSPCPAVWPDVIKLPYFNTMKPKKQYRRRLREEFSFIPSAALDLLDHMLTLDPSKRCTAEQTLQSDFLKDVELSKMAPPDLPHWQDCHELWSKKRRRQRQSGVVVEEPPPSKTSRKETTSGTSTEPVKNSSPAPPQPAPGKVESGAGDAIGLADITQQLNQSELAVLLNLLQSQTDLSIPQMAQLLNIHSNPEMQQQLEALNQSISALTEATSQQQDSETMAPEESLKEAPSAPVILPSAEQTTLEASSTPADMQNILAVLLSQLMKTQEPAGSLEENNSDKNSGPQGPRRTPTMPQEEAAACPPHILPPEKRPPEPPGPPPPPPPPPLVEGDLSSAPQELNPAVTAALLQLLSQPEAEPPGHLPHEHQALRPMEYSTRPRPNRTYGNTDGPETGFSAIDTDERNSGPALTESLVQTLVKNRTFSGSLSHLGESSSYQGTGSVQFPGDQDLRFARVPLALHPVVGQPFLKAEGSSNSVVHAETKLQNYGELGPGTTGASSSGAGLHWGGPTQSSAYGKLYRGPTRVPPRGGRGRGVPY
T1 sequence (P50613 whole entry): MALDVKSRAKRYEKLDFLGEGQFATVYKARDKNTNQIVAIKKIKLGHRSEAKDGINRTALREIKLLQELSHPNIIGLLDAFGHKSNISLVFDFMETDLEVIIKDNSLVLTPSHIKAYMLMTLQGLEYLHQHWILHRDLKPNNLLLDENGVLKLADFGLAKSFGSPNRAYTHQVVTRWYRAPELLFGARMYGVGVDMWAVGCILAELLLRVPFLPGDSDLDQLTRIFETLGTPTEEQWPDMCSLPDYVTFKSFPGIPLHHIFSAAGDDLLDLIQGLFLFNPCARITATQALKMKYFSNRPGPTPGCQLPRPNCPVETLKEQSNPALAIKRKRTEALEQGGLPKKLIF
Cyclin-dependent kinase 1, sequence (P06493 whole entry): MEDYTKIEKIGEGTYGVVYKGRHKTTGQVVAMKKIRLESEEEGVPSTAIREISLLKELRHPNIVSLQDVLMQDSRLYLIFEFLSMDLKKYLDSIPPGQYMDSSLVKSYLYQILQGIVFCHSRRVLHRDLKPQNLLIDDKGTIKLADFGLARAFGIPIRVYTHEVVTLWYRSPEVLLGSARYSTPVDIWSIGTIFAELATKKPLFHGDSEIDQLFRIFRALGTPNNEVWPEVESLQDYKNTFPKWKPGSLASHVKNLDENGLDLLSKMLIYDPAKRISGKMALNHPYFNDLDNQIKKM

- EC50 (CDK12/Cyclin K): 12 nM
SMILES: CC(C)c1nn(-c2c(Cl)cccc2Cl)c2nc(Cc3ccc(OCCO)cc3)[nH]c(=O)c12

- IC50 [1]: 620 nM
SMILES: CN(C)C/C=C/C(=O)Nc1ccc(C(=O)Nc2cccc(Nc3ncc(Cl)c(-c4c[nH]c5ccccc45)n3)c2)cc1

- IC50 [2]: 690 nM
SMILES: CN(C)C/C=C/C(=O)Nc1ccc(C(=O)N2CCC[C@@H](Nc3ncc(Cl)c(-c4c[nH]c5ccccc45)n3)C2)cc1

- IC50 [3]: 0.33 nM
SMILES: Clc1cnc(N[C@H]2CCCNC2)nc1-c1c[nH]c2ccccc12

- IC50 [4]: 80 nM
SMILES: CN(C)C/C=C/C(=O)Nc1ccc(C(=O)N[C@@]2(C)CCC[C@@H](Nc3ncc(Cl)c(-c4c[nH]c5ccccc45)n3)C2)nc1

- IC50 [5]: < 10000 nM
- IC50 [6]: > 10000 nM
- IC50 [7]: > 10000 nM
- Kd [8]: > 10000 nM
- Kd [9]: > 10000 nM
SMILES: Cn1cc(-n2cnc3c(NCc4nc5cc(Cl)c(Cl)cc5[nH]4)nc(N4CCOCC4)nc32)cn1

- Ki [10]: 5.9 nM
- Ki [11]: 0.2 nM
- Ki [12]: 0.2 nM
- Ki [13]: 9.6 nM
SMILES: CC(=O)c1c(C)c2cnc(NC3CCN(S(C)(=O)=O)CC3)nc2n(C2CCCC2)c1=O

- IC50 [14]: 2 nM
SMILES: N[C@H]1CCN(c2c3c(nc4ccc(-c5ccnc(NC(=O)C6CC6)c5)cc24)CCCC3)C1

- IC50 [14]: 8 nM
- IC50 [15]: > 500 nM
SMILES: N[C@H]1CCN(c2c3c(nc4ccc(-c5ccncc5)cc24)CCCC3)C1

- EC50 (CDK12/Cyclin K): 9 nM
SMILES: CC(C)n1cnc2c(NCc3nc4cc(Cl)c(Cl)cc4[nH]3)nc(N3CCOCC3)nc21

- IC50 [16]: > 9400 nM
- IC50 [17]: > 9400 nM
- IC50 [18]: > 9400 nM
SMILES: CC(C)c1cnn2c(NCc3ccccc3)cc(NC[C@H]3CCNC[C@@H]3O)nc12 [CT-7001]
